In patent US20020061849A1, “Methods for treatment of diseases associated with inflammation under non-ischemic conditions” (priority 2000, published 2002):

Tests used:
AQP1 = assay: Bilateral ureteral obstruction (BUO), semiquantitative immunoblotting of AQP1; assay type: in vivo, rat
Protocol: (§1) Adult Munich-Wistar rats were anesthetized with halothane and placed on a heating board under an operating microscope, Through a midline abdominal incision both ureters were exposed and occluded by placing a 5-mm piece of bisected polyethylene tubing (PE-50) around the midportion of each ureter. The ureter was then occluded by tightening the tubing with a 5-0 silk ligature. 24 hours later, the obstructed ureters were decompressed by removal of the ligature and the PE-50 tubing. Done in this manner, both ureters could be completely occluded for 24 h and without evidence of functional impairment of ureteral function and rats followed up to several days after release of obstruction.
(§2) Protocol III-2: This protocol included 1) Rats with BUO for 24 hours and followed by release for 5 hours (n=10) and 2) Sham operated rats (n=5). The rats with BUO-R were divided into two groups: α-MSH nontreated (n=5) and α-MSH treated (n=5). α-MSH ([…], i.v.) was given at the onset of BUO, 12 hours later and at the onset of release.
(§3) Protocol III-3: This protocol included 1) Rats with BUO for 24 hours and followed by release for 48 hours. The rats were divided into two groups: α-MSH nontreated (n=10) and α-MSH treated (n=13). α-MSH (50 μg) was given with micro-osmotic pump via jugular vein at the onset of BUO. 2) Sham operated rats (n=8) treated with vehicle with micro-osmotic pump.
Inner medulla and whole kidneys were homogenized (0.3 M sucrose, 25 mM imidazole, 1 mM EDTA, pH 7.2, containing 8.5 μM leupeptin. 1 mM phenylmethyl sulfonylfluoride) using an ultra-turrax T8 homogenizer (IKA Labortechnik, Germany), at 5 strokes for 20 seconds (inner medulla) or at 5.5 strokes for 30 seconds (whole kidney) and the homogenate was centrifuged in an Eppendorf centrifuge at 4000 g for 15 minutes at 4° C. to remove whole cells, nuclei and mitochondria. Gel samples (Laemmli sample buffer containing 2% SDS) were made of this pellet.
[…] For each gel, identical gel was run in parallel and subjected to Coomassie staining to assure identical loading. Then gels were subjected to immunoblotting. […] The labeling was visualized with horseradish peroxidase (HRP)-conjugated secondary antibodies (P448, DAKO, Glostrup Denmark, diluted as 1:3000) using an enhanced chemiluminescence system (ECL, Amersham International, UK).
(§4) ECL films with bands within the linear range were scanned using an AGFA scanner (ARCUS II) and Corel Photopaint Software to control the scanner. For AQP1 and AQP2, both the 29-kDa and the 35- to 50-kDa bands (corresponding to nonglycosylated and the glycosylated species) were scanned. […] The labeling density was determined of blots where samples of kidneys from α-MSH treated and nontreated groups were run together with samples from control kidneys. […]

[1] = tested on: adriamycin-induced nephrotic syndrome; assay: Adriamycin-induced nephrotic syndrome
Protocol: Protocol IV-1. Rats were treated with adriamycin (7.5 mg/kg i.p.; n=12) and followed for 21 days, respectively. Shams received saline i.p. (n=6). […] The other half received vehicle (saline) in osmotic minipumps.
Protocol IV-3. Rats were treated with adriamycin (7.5 mg/kg i.p.; n=8) and followed for 21 days, respectively. Shams received saline i.p. (n=6). Half of the adriamycin treated animals received epoetin (100 units/kg/day) during the entire experiments. The other half received vehicle (saline).

[2] = tested on: purimycin-induced nephrotic syndrome; assay: Purimycin (PAN)-induced nephrotic syndrome
Protocol: Nephrotic syndrome was induced by a single i.p. or s.c. injection of adriamycin or purimycin (at various doses) and the rats were followed for 7 days-21 days. Development of severe nephrotic syndrome was established by monitoring the total body weight, urinary protein excretion (proteinuria) and at time of ending the experiment the volume of fluid in the abdominal cavity was determined (rats develop severe water retention and ascites).
Protocol IV-2. Rats were treated with purimycin (100 mg/kg i.p., n=6) and followed for 11 days, respectively.
To determine the levels of proteinuria in experimental nephrotic syndrome urine was examined daily using Albym (Boehringer-Mannheim).

AQP3 = assay: Bilateral ureteral obstruction (BUO), semiquantitative immunoblotting of AQP3; assay type: in vivo, rat; conditions: inner medulla
Protocol: as §1
(§5) Protocol III-1: This protocol included 1) Rats with BUO for 24 hours (n=20) and 2) sham-operated rats (n=10).
Protocol III-2: This protocol included 1) Rats with BUO for 24 hours and followed by release for 5 hours (n=10) and 2) Sham operated rats (n=5). […]
as §4, with “scanner.” for “scanner. For AQP1 and AQP2, both the 29-kDa and the 35- to 50-kDa bands (corresponding to nonglycosylated and the glycosylated species) were scanned.”

[3] = tested on: lung tissue exposed with LPS; assay: LPS-inhalation induced lung inflammation, differential counting of lavage cells; conditions: rats, LPS inhalation 5 mg for 20 min, lavage 24 h later, treatment at onset of LPS and after 12 hours (α-MSH 50 μg i.v.; Epoitin 100 U/kg/day i.p.)
Protocol: Studies were performed on male Spraque Dawley rats (Møllegard Breeding centre Ltd., Eiby, Denmark). The rats were maintained on a standard rodent diet (Altromin, Lage, Germany) with free access to water. Inflammation of the lungs (asthma) was induced by LPS inhalation with the animals anesthetized using Midazolam and Hypnorm The LPS was administrated by connecting the rat to a semiclosed breathing system consisting of a MAXIN bottle filled with a mixture of LPS in saline connected to a standard inhalation chamber. Each animals is exposed for 20 min with 5 mg LPS. Twenty-four hours after exposure to LPS rats were killed. Subsequently, lavage was performed by washing the lungs with PBS (5 ml) 6 times. The lung tissue was then centrifuged for 10 min (1000 rpm) and resuspended in 0.5 ml. From each sample 2 blood smears were made. They were air-dryed, fixed and counterstained for differential cell counting.

Na,K-ATPase = assay: Bilateral ureteral obstruction (BUO), semiquantitative immunoblotting of Na,K-ATPase; assay type: in vivo, rat; conditions: whole kidney; for Na-K-ATPase levels, % of control: nontreated 35-50% of control levels
Protocol: as §1, §5, §2
as §3, with “pump. […]” for “pump.”
as §4, with “scanner.” for “scanner. For AQP1 and AQP2, both the 29-kDa and the 35- to 50-kDa bands (corresponding to nonglycosylated and the glycosylated species) were scanned.”

AQP2 = assay: Bilateral ureteral obstruction (BUO), semiquantitative immunoblotting of AQP2; assay type: in vivo, rat; conditions: inner medulla, 24 h BUO; α-MSH 50 μg i.v. at onset and 12 hours later (nontreated 13±4%); epoitin 100 U/kg/day i.p. (nontreated 16±3%)
Protocol: as §1, §5
Protocol III-6: This protocol included 1) Rats with BUO for 24 hours and 2) sham-operated rats. […]
as §4, with “scanner.” for “scanner. For AQP1 and AQP2, both the 29-kDa and the 35- to 50-kDa bands (corresponding to nonglycosylated and the glycosylated species) were scanned.”

[4] = tested on: renal function in rats with BUO; assay: Bilateral ureteral obstruction (BUO), plasma parameters and clearance studies; assay type: in vivo, rat
Protocol: as §1, §5, §3
1) Rats with BUO for 24 hours followed by release for 48 hours (n=10) and 2) sham-operated rats (n=5).
Weight, water intake, food intake and urine output were observed during the rats were maintained in the metabolic cages. Urine was collected over 24-h periods throughout the study. Urine volume, osmolality, creatinine, sodium and potassium concentration were measured. Plasma was collected from abdominal aorta at the time of sacrifice for measurement of sodium and potassium concentration, creatinine, and osmolality. In protocols 4 and 9 detailed examinations of renal function was performed: The experiments were carried out between 8 a.m. and 1 p.m. The rats were transferred to a restraining cage and connected to infusion pumps via the vein catheter and to a BP transducer via the arterial catheter. Urine was collected in three periods of 20 min preceded by an equilibration period of 105 min. Throughoutthe experiment, a half isotone saline (77 mM NaCl) was infused at a rate of 70 μl/min to maintain a minimum urine flow necessary for accuracy of the bladder emptying. ^14C-tetraethylammonium bromide (0.83 μCi/ml; New England Nuclear, Boston, Mass.), together with ^3H-inulin (2.5 μCi/ml; Amersham, Rainham, United Kindgom) and LiCI (13 mmol/L), were infused together with the saline as markers of effective renal plasma flow (ERPF), GFR, and tubular fluid delivery from proximal tubules (Vprox), respectively. A bolus of markers four times the continuous infusion velocity was given in the first 15 min. Blood samples (200 μl) were drawn from the arterial catheter after 105 and 165 min. Blood substitution with donor blood was given after each blood sample. Mean arterial BP was recorded continuously using a Uniflow™ transducer (Baxter, Irvine, Calif.) connected to a preamplifier and PC registration. Clearance experiments were carried out in BUO and SHAM rats 7 days prior to obstruction and 48 hours after release of BUO.
Urine volume was determined by gravimetric means.

[5] = tested on: renal function in rats treated with continious LPS infusion; assay: Systemic LPS infusion by osmotic minipump for three days, renal function; conditions: for increase of GFR (creatinin clearance) compared to the LPS-Vehicle group: LPS infusion for three days; for survival during 3 days of LPS-administration: N=5 per group, mortality in vehicle group 20%
Protocol: To relieve postoperative pain, rats were treated with buprenorfin, 0.2 mg/kg body weight i.p. Two weeks later the rats were anesthetized with halothane-nitrous oxide and a osmotic minipump (Alzet 1003D)filled with a LPS solution was implanted into the abdomen. The mean infusion rate of LPS was 200 μg/kg/hour. All rats except the control rats received LPS infusion. N=5 in all groups.
Protocol II: Systemic LPS-infusion:
II-1. Controls. Untreated rats without LPS infusion.
II-2 Vehicle: Rats receiving LPS infusion treated with 0.5 ml 0.9% NaCl twice daily.
II-3 rh-EPO: Rats receiving LPS infusion treated with 200 I.U. epoitin alpha (EPO)/kg body weight in 0.5 ml 0.9% NaCl twice daily.

[6] = BUO for 24 h followed by 48 h of release

Which results are given for “α-melanocyte-stimulating hormone [α-MSH]”?
AQP1 expression, % of sham level (AQP1; outer medulla and cortex, 24 h BUO followed by release for 5 hours, nontreated 35±2%): 62±9%; AQP1 expression, % of sham level (AQP1; outer medulla and cortex, 24 h BUO followed by release for 48 hours, α-MSH by micro-osmotic pump): 73±8%; AQP1 expression, % of sham level (AQP1; whole kidney, 24 h BUO followed by release for 5 hours, α-MSH 50 μg i.v. at onset, 12 hours later and at release, nontreated 7±2%): 81±21%; AQP1 expression, % of sham level (AQP1; whole kidney, 24 h BUO followed by release for 48 hours, α-MSH 50 μg by micro-osmotic pump, nontreated 24±5%): 58±6%; prevention of ascites production ([1]; adriamycin i.p. (Protocol IV-1), α-MSH for 3-4 days after injection): 89±7%; proteinuria levels ([2]; PAN rats at day 5 after PAN injection (FIG. 3), result in words): marked reduction; proteinuria ([2]; low dose purimycin treatment (Protocol IV-2), result in words): marked reduction; reduction of ascites production ([2]; low dose purimycin treatment, n=6 (Protocol IV-2)): 80±8%; preventive effect on nephrotic syndrome ([2]; very servere purimycin (high dose) induced nephrotic syndrome, result in words): less potent effect; AQP3 expression, % of sham level (AQP3; 24 h BUO followed by release for 5 hours, nontreated 14±5%): 34±4%; AQP3 expression, % of sham level (AQP3; 24 h BUO, α-MSH 50 μg i.v. at onset and 12 hours later, nontreated 19±4%): 44±3%; Differential counting of cells %, Eosinofiles [3]: 1.8±1.3%; Differential counting of cells %, Lymfocytes [3]: 72.3 ± 12.1%; Differential counting of cells %, Monocytes [3]: 12.3 ± 7.4%; Na-K-ATPase levels, % of control (Na,K-ATPase; 24 h BUO followed by 5 h of release): 102±14%; Na,K-ATPase levels (Na,K-ATPase; 24 h BUO, result in words): completely normalized; Na-K-ATPase levels, % of control (Na,K-ATPase; 48 hours after release of BUO): 114±10%; AQP2 expression, % of sham level (AQP2): 38±5%; plasma sodium levels ([4]; 24 h BUO, without α-MSH 135±2 mmol/L): 139 ± 0.6 mmol/L; Glomerular filtration rate (GFR) ([4]; 48 hours after release of BUO, SHAM 840±105): 705±85 μl/min/100 g; Effective renal plasma flow (ERPF) ([4]; 48 hours after release of BUO, SHAM 2633±457): 2598±129 μl/min/100 g; plasma urea ([4]; BUO for 24 h followed by 48 of release, nontreated 35±9 mmol/l): 13 ± 2 mmol/L; Plasma creatinine levels ([4]; BUO for 24 h followed by 48 of release, nontreated 160±34 μmol/l): 79 ± 34 µmol/L; ERPF, result in words [4, 6]: completely normalized; GFR, result in words [4, 6]: completely normalized; increase of GFR (creatinin clearance) compared to the LPS-Vehicle group [5]: 57%; survival during 3 days of LPS-administration [5]: All animals survived

For epoitin alpha, which “ascites formation, result in words” value ([1]; adriamycin-induced nephrotic syndrome, EPO once every 24 hours) is on record?
The value was “prevented the ascites formation”.

What about the “Differential counting of cells %, Eosinofiles” value [3] of the same substance?
Its value is 0.7 ± 0.6%.

What about the “Differential counting of cells %, Lymfocytes” value [3] of the same substance?
Its value is 77.1 ± 9.9%.

And the “Differential counting of cells %, Monocytes” value [3]?
Its value is 11.4 ± 4.6%.

And the “Differential counting of cells %, Neutrofiles” value [3]?
The value was 10.9 ± 12.7%.

And the “Differential counting of cells %, Eosinofiles” value ([3]; listed as epoitin)?
Its value is 0.7±0.6%.

And the “Differential counting of cells %, Neutrofiles” value ([3]; listed as epoitin)?
The value was 10.9±12.7%.

What about the “AQP2 expression, % of sham level” value (AQP2) of the same substance?
Its value is 30±18%.

And the “increase of GFR (creatinin clearance) compared to the LPS-Vehicle group” value [5]?
The value was 51%.

What about the “survival during 3 days of LPS-administration” value [5] of the same substance?
The value was “All animals survived”.
